# Test system: 843126-344-R-J1-PDC complex spheroid viability
# Assay: Anticancer human tumor 843126-344-R-J1-PDC patient-derived melanoma cell line growth inhibition [POLQ]
# Details: second compound 0.316 µM; first compound 0.316 µM; active compounds read low
# Summary of the method: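 PDC + HUVEC + MSC complex spheroids; POLQ inhibitors ± partner drugs; top conc. at/near clinical Cmax, else 10 microM (SN-38 1 microM), half-log dilutions; 37 degrees C, 5% CO2.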
# 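Also: spheroids exposed to drugs for seven days before readout.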
row,Compound,"viability, T/C"
1,CC1COCCN1c1cc(-c2ccnn2C)c2ccnc(-c3ccn[nH]3)c2n1 (stereo unspecified) + Nc1ccc(C#CCN(C(=O)Cc2ncc(C(F)(F)F)cc2C(F)(F)F)c2ccc(F)cc2)nn1,63.9%
2,CC1COCCN1c1cc(C2(S(C)(=N)=O)CC2)nc(-c2ccnc3[nH]ccc23)n1 (stereo unspecified) + Nc1ccc(C#CCN(C(=O)Cc2ncc(C(F)(F)F)cc2C(F)(F)F)c2ccc(F)cc2)nn1,82.3%
3,COc1ccc([C@@H](O)c2cc(-c3ncnc4cc(N5CCOCC5)ccc34)c(F)cc2Cl)nn1 + Nc1ccc(C#CCN(C(=O)Cc2ncc(C(F)(F)F)cc2C(F)(F)F)c2ccc(F)cc2)nn1,87%

# Same assay, conditions: second compound 0.316 µM; first compound 1 µM; active compounds read low
row,Compound,"viability, T/C"
1,C=CC(=O)N1CCN(c2nc(=O)n(-c3c(C)ccnc3C(C)C)c3nc(-c4c(O)cccc4F)c(F)cc23)C(C)C1 (stereo unspecified) + Nc1ccc(C#CCN(C(=O)Cc2ncc(C(F)(F)F)cc2C(F)(F)F)c2ccc(F)cc2)nn1,113%
2,CC(C)n1c(=O)n(C)c2cnc3cc(F)c(-c4ccc(OCCCN5CCCCC5)nc4)cc3c21 + Nc1ccc(C#CCN(C(=O)Cc2ncc(C(F)(F)F)cc2C(F)(F)F)c2ccc(F)cc2)nn1,85.7%
3,CC1COCCN1c1cc(-c2ccnn2C)c2ccnc(-c3ccn[nH]3)c2n1 (stereo unspecified) + Nc1ccc(C#CCN(C(=O)Cc2ncc(C(F)(F)F)cc2C(F)(F)F)c2ccc(F)cc2)nn1,46.6%
4,CC1COCCN1c1cc(C2(S(C)(=N)=O)CC2)nc(-c2ccnc3[nH]ccc23)n1 (stereo unspecified) + Nc1ccc(C#CCN(C(=O)Cc2ncc(C(F)(F)F)cc2C(F)(F)F)c2ccc(F)cc2)nn1,77.5%
5,COc1ccc([C@@H](O)c2cc(-c3ncnc4cc(N5CCOCC5)ccc34)c(F)cc2Cl)nn1 + Nc1ccc(C#CCN(C(=O)Cc2ncc(C(F)(F)F)cc2C(F)(F)F)c2ccc(F)cc2)nn1,85.1%

# Same assay, conditions: second compound 0.316 µM; first compound 3.16 µM; active compounds read low
row,Compound,"viability, T/C"
1,C=CC(=O)N1CCN(c2nc(=O)n(-c3c(C)ccnc3C(C)C)c3nc(-c4c(O)cccc4F)c(F)cc23)C(C)C1 (stereo unspecified) + Nc1ccc(C#CCN(C(=O)Cc2ncc(C(F)(F)F)cc2C(F)(F)F)c2ccc(F)cc2)nn1,94.5%
2,CC(C)n1c(=O)n(C)c2cnc3cc(F)c(-c4ccc(OCCCN5CCCCC5)nc4)cc3c21 + Nc1ccc(C#CCN(C(=O)Cc2ncc(C(F)(F)F)cc2C(F)(F)F)c2ccc(F)cc2)nn1,89.2%
3,CC1COCCN1c1cc(-c2ccnn2C)c2ccnc(-c3ccn[nH]3)c2n1 (stereo unspecified) + Nc1ccc(C#CCN(C(=O)Cc2ncc(C(F)(F)F)cc2C(F)(F)F)c2ccc(F)cc2)nn1,40.6%
4,CC1COCCN1c1cc(C2(S(C)(=N)=O)CC2)nc(-c2ccnc3[nH]ccc23)n1 (stereo unspecified) + Nc1ccc(C#CCN(C(=O)Cc2ncc(C(F)(F)F)cc2C(F)(F)F)c2ccc(F)cc2)nn1,70%
5,COc1ccc([C@@H](O)c2cc(-c3ncnc4cc(N5CCOCC5)ccc34)c(F)cc2Cl)nn1 + Nc1ccc(C#CCN(C(=O)Cc2ncc(C(F)(F)F)cc2C(F)(F)F)c2ccc(F)cc2)nn1,79.5%

# Same assay, conditions: second compound 0.316 µM; first compound 10 µM; active compounds read low
row,Compound,"viability, T/C"
1,C=CC(=O)N1CCN(c2nc(=O)n(-c3c(C)ccnc3C(C)C)c3nc(-c4c(O)cccc4F)c(F)cc23)C(C)C1 (stereo unspecified) + Nc1ccc(C#CCN(C(=O)Cc2ncc(C(F)(F)F)cc2C(F)(F)F)c2ccc(F)cc2)nn1,85.1%
2,CC(C)n1c(=O)n(C)c2cnc3cc(F)c(-c4ccc(OCCCN5CCCCC5)nc4)cc3c21 + Nc1ccc(C#CCN(C(=O)Cc2ncc(C(F)(F)F)cc2C(F)(F)F)c2ccc(F)cc2)nn1,71.6%
3,CC1COCCN1c1cc(-c2ccnn2C)c2ccnc(-c3ccn[nH]3)c2n1 (stereo unspecified) + Nc1ccc(C#CCN(C(=O)Cc2ncc(C(F)(F)F)cc2C(F)(F)F)c2ccc(F)cc2)nn1,30.2%
4,CC1COCCN1c1cc(C2(S(C)(=N)=O)CC2)nc(-c2ccnc3[nH]ccc23)n1 (stereo unspecified) + Nc1ccc(C#CCN(C(=O)Cc2ncc(C(F)(F)F)cc2C(F)(F)F)c2ccc(F)cc2)nn1,49.2%
5,COc1ccc([C@@H](O)c2cc(-c3ncnc4cc(N5CCOCC5)ccc34)c(F)cc2Cl)nn1 + Nc1ccc(C#CCN(C(=O)Cc2ncc(C(F)(F)F)cc2C(F)(F)F)c2ccc(F)cc2)nn1,80.7%

# Same assay, conditions: second compound 1 µM; first compound 0.000316 µM; active compounds read low
row,Compound,"viability, T/C"
1,Cn1ncnc1[C@H]1c2n[nH]c(=O)c3cc(F)cc(c23)N[C@@H]1c1ccc(F)cc1 + Nc1ccc(C#CCN(C(=O)Cc2ncc(C(F)(F)F)cc2C(F)(F)F)c2ccc(F)cc2)nn1,97.3%

# Same assay, conditions: second compound 1 µM; first compound 0.001 µM; active compounds read low
row,Compound,"viability, T/C"
1,Cn1ncnc1[C@H]1c2n[nH]c(=O)c3cc(F)cc(c23)N[C@@H]1c1ccc(F)cc1 + Nc1ccc(C#CCN(C(=O)Cc2ncc(C(F)(F)F)cc2C(F)(F)F)c2ccc(F)cc2)nn1,102%

# Same assay, conditions: second compound 1 µM; first compound 0.00316 µM; active compounds read low
row,Compound,"viability, T/C"
1,Cn1ncnc1[C@H]1c2n[nH]c(=O)c3cc(F)cc(c23)N[C@@H]1c1ccc(F)cc1 + Nc1ccc(C#CCN(C(=O)Cc2ncc(C(F)(F)F)cc2C(F)(F)F)c2ccc(F)cc2)nn1,87.9%

# Same assay, conditions: second compound 1 µM; first compound 0.01 µM; active compounds read low
row,Compound,"viability, T/C"
1,Cn1ncnc1[C@H]1c2n[nH]c(=O)c3cc(F)cc(c23)N[C@@H]1c1ccc(F)cc1 + Nc1ccc(C#CCN(C(=O)Cc2ncc(C(F)(F)F)cc2C(F)(F)F)c2ccc(F)cc2)nn1,106%

# Same assay, conditions: second compound 1 µM; first compound 0.0316 µM; active compounds read low
row,Compound,"viability, T/C"
1,C=CC(=O)N1CCN(c2nc(=O)n(-c3c(C)ccnc3C(C)C)c3nc(-c4c(O)cccc4F)c(F)cc23)C(C)C1 (stereo unspecified) + Nc1ccc(C#CCN(C(=O)Cc2ncc(C(F)(F)F)cc2C(F)(F)F)c2ccc(F)cc2)nn1,101%
2,CC(C)n1c(=O)n(C)c2cnc3cc(F)c(-c4ccc(OCCCN5CCCCC5)nc4)cc3c21 + Nc1ccc(C#CCN(C(=O)Cc2ncc(C(F)(F)F)cc2C(F)(F)F)c2ccc(F)cc2)nn1,89.3%
3,CC1COCCN1c1cc(-c2ccnn2C)c2ccnc(-c3ccn[nH]3)c2n1 (stereo unspecified) + Nc1ccc(C#CCN(C(=O)Cc2ncc(C(F)(F)F)cc2C(F)(F)F)c2ccc(F)cc2)nn1,84.6%
4,CC1COCCN1c1cc(C2(S(C)(=N)=O)CC2)nc(-c2ccnc3[nH]ccc23)n1 (stereo unspecified) + Nc1ccc(C#CCN(C(=O)Cc2ncc(C(F)(F)F)cc2C(F)(F)F)c2ccc(F)cc2)nn1,96.2%
5,COc1ccc([C@@H](O)c2cc(-c3ncnc4cc(N5CCOCC5)ccc34)c(F)cc2Cl)nn1 + Nc1ccc(C#CCN(C(=O)Cc2ncc(C(F)(F)F)cc2C(F)(F)F)c2ccc(F)cc2)nn1,88.1%
6,Cn1ncnc1[C@H]1c2n[nH]c(=O)c3cc(F)cc(c23)N[C@@H]1c1ccc(F)cc1 + Nc1ccc(C#CCN(C(=O)Cc2ncc(C(F)(F)F)cc2C(F)(F)F)c2ccc(F)cc2)nn1,104%

# Same assay, conditions: second compound 1 µM; first compound 0.1 µM; active compounds read low
row,Compound,"viability, T/C"
1,C=CC(=O)N1CCN(c2nc(=O)n(-c3c(C)ccnc3C(C)C)c3nc(-c4c(O)cccc4F)c(F)cc23)C(C)C1 (stereo unspecified) + Nc1ccc(C#CCN(C(=O)Cc2ncc(C(F)(F)F)cc2C(F)(F)F)c2ccc(F)cc2)nn1,104%
2,CC(C)n1c(=O)n(C)c2cnc3cc(F)c(-c4ccc(OCCCN5CCCCC5)nc4)cc3c21 + Nc1ccc(C#CCN(C(=O)Cc2ncc(C(F)(F)F)cc2C(F)(F)F)c2ccc(F)cc2)nn1,85.7%
3,CC1COCCN1c1cc(-c2ccnn2C)c2ccnc(-c3ccn[nH]3)c2n1 (stereo unspecified) + Nc1ccc(C#CCN(C(=O)Cc2ncc(C(F)(F)F)cc2C(F)(F)F)c2ccc(F)cc2)nn1,65.8%
